{
  "source": "paper PMC10054553",
  "about": "“Development of the First ^18F-Labeled Radiohybrid-Based Minigastrin Derivative with High Target Affinity and Tumor Accumulation by Substitution of the Chelating Moiety” (Pharmaceutics, 2023)",
  "key": {"[1]": {"experiment": "Lipophilicity (logD7.4), n-octanol/PBS pH 7.4", "assay_type": "physicochemical", "protocol": "Cell-based experiments and determination of lipophilicity (logD7.4) were performed as previously published. A detailed description of the in vitro experiments is provided in the Supplementary Materials.\nCell Culture. CCK-2R-expressing rat pancreatic cancer cells AR42J (CLS GmbH, Eppelheim, Germany) were cultivated in monolayers in CELLSTAR® cell culture flasks acquired from Greiner Bio-One GmbH (Frickenhausen, Germany) at 37°C in a humidified atmosphere (5% CO2) using a HERAcell 150i-Incubator (Thermo Fisher Scientific Inc., Waltham, United States). The nutrient medium RPMI 1640 medium, supplemented with 5 mM L-Gln 5 mL non-essential amino acids (100×) and 10% FCS, was used. Furthermore, a Dulbecco’s PBS solution with 0.1% EDTA (v/v) was applied to detach the cells for cell passaging. The detached cells were counted using a Neubauer hemocytometer (Paul Marienfeld, Lauda-Königshofen, Germany). In addition, all operations under sterile conditions were accomplished using a MSC-Advantage safety workbench (Thermo Fisher Scientific Inc., Waltham, United States).\nDetermination of IC50. AR42J cells (2.0 × 10^5 cells/well) were seeded into 24-well plates 24 ± 2 h prior to testing using 1 mL of nutrient medium (RPMI 1640, 5 mM L-Gln, 5 mL non-essential amino acids (100×), 10% FCS). Cells were incubated at 37°C in a humidified atmosphere (5% CO2).\nAfter the removal of the medium, each well was washed with 500 μL PBS. For the cell-based assay, 200 μL of the nutrient medium (+5% BSA), [ 177Lu]Lu-DOTA-PP-F11N (25 μL, 0.3 pmol) as a radiolabeled reference and 25 μL of the peptide of interest in increasing concentrations (10 −10 to 10−4 M) were added to the cells in triplicate. Thereafter, the assay was incubated for 3 h at 37°C and the supernatant was collected. The cells were washed with 300 μL PBS and the collected supernatant fractions were unified.\nAfter lysis of the cells with NaOH (300 μL, 1 N) for 15 min, the respective wells were washed with NaOH (300 μ L, 1 N) and both fractions were unified. The radioactivity of both the supernatant and the lysed fractions were quantified using a γ-counter (PerkinElmer Inc., Waltham, United States). The obtained data were evaluated via the GraphPad PRISM software (GraphPad Software Inc., La Jolla, United States), which calculates the half-maximal inhibitory concentration (IC50) of the peptides.\nInternalization Studies. For the determination of the internalization kinetics of the various peptides, AR42J cells (3.0 × 10^5 cells/well) were seeded into polylysine-coated 24-well plates, adding 1 mL of nutrient medium. Afterwards, the cells were incubated for 24 ± 2 h at 37°C in a humidified atmosphere […]\nOn the day of the experiment, the medium was removed, and each well was washed with nutrient medium (300 μL). Afterwards 200 μL of nutrient medium, 25 μL of the 177Lu-labeled peptide (0.3 pmol, n = 6) and either 25 μL of nutrient medium for internalization studies ( n = 3) or 25 μL of [natLu]Lu-DOTA-PP-F11N (10 μmol) for competition studies ( n = 3) were added. Thereafter, the assay was incubated for various time points (1, 2, 4 and 6 h) at 37°C in a humidified atmosphere (5% CO2). After incubation, the cells were put on ice for at least 1 min to stop internalization kinetics and the supernatant was collected. Then, the cells were washed with an ice-cold nutrient medium (300 μL) and both fractions were unified. […] The radioactivity of the supernatant, the acid wash and the lysed fractions were quantified using a γ-counter. […]"}, "[2]": {"system": "AR42J tumor-bearing CB17-SCID mice", "experiment": "Biodistribution in AR42J tumor-bearing CB17-SCID mice", "assay_type": "in vivo", "conditions": "24 h p.i.", "protocol": "All animal experiments were conducted in accordance with general animal welfare regulations in Germany (German animal protection act, in the edition of the announcement, dated 18 May 2006, as amended by Article 280 of 19 June 2020, approval no. ROB-55.2-1-2532.Vet_02-18-109 by the General Administration of Upper Bavaria) and the institutional guidelines for the care and use of animals. CB17-SCID mice of both genders and aged 2–12 months (Charles River Laboratories International Inc., Sulzfeld, Germany) were allowed to acclimate at the in-house animal facility for at least one week before inoculation was performed. Tumor xenografts were established as previously reported. Exclusion criteria for animals from an experiment were either weight loss higher than 20%, a tumor size above 1500 mm^3, an ulceration of the tumor, respiratory distress or a change of behavior. None of these criteria applied to any animal from the experiment. Neither randomization nor blinding was applied in the allocation of the experiments. Health status is SPF according to FELASA recommendation.\nBiodistribution studies (n = 4) and µSPECT/CT as well as µPET/CT imaging (using a MILabs VECTor^4 small-animal SPECT/PET/OI/CT device, MILabs, Utrecht, The Netherlands) at 1 and 24 h p.i. were carried out as previously published. For all ^177Lu-labeled compounds, approximately 2–3 MBq (100 pmol)—and for the ^18F-labeled analog, approximately 7 MBq (100 pmol)—were administered. For all competition studies, 2.90 mg/kg (40 nmol) of [^natLu]Lu-DOTA-MGS5 (10^−3 M in phosphate-buffered saline) were co-administered."}, "[3]": {"conditions": "100 pmol co-injected with DOTA-MGS5 (40 nmol), n = 2"}},
  "data": [
    {"smiles": "CCCC[C@H](NC(=O)[C@H](Cc1c[nH]c2ccccc12)NC(=O)CNC(=O)[C@H](Cc1ccc(O)cc1)NC(=O)[C@H](C)NC(=O)CC[C@@H](NC(=O)CC[C@@H](NC(=O)CC[C@@H](NC(=O)CC[C@@H](NC(=O)CC[C@@H](NC(=O)CC[C@@H](NC(=O)CC[C@@H](NC(=O)CC[C@@H](NC(=O)[C@@H](CNC(=O)c1ccc([Si](F)(C(C)(C)C)C(C)(C)C)cc1)NC(=O)CN1CCN(CC(=O)O)CCN(CC(=O)O)CCN(CC(=O)O)CC1)C(=O)O)C(=O)O)C(=O)O)C(=O)O)C(=O)O)C(=O)O)C(=O)O)C(=O)O)C(=O)N[C@@H](CC(=O)O)C(=O)N[C@@H](Cc1ccccc1)C(N)=O", "note": "[[^19F]F-[^177Lu]Lu-DOTA-rhCCK-18] [metal not drawn]", "values": [
      {"measurement": "logD7.4", "setting": "[1]; n-octanol/PBS pH 7.4", "result": "−2.69 ± 0.06"},
      {"measurement": "fold enhanced kidney values compared to [177Lu]Lu-DOTA-PP-F11N", "setting": "[2]", "result": 40, "unit": "fold"},
      {"measurement": "fold higher tumor uptake compared to [177Lu]Lu-DOTA-PP-F11N", "setting": "[2]", "result": 13, "unit": "fold"},
      {"measurement": "Pancreas activity, competition studies", "setting": "[2]; [3]", "result": "0.22 ± 0.02", "unit": "%ID/g"},
      {"measurement": "Stomach activity, competition studies", "setting": "[2]; [3]", "result": "< 2", "unit": "%ID/g"},
      {"measurement": "Tumor activity, competition studies", "setting": "[2]; [3]", "result": "< 2", "unit": "%ID/g"},
      {"measurement": "Kidney activity", "setting": "[2]; 100 pmol, n = 4", "result": "134 ± 18", "unit": "%ID/g"},
      {"measurement": "Pancreas activity", "setting": "[2]; 100 pmol, n = 4", "result": "0.34 ± 0.09", "unit": "%ID/g"},
      {"measurement": "Stomach activity", "setting": "[2]; 100 pmol, n = 4", "result": "4.28 ± 1.05", "unit": "%ID/g"},
      {"measurement": "Tumor activity", "setting": "[2]; 100 pmol, n = 4, AR42J tumor", "result": "25.4 ± 4.7", "unit": "%ID/g"},
      {"measurement": "fold higher tumor uptake compared to (R)-DOTAGA derivative", "setting": "[2]; b47: versus [177Lu]Lu-(R)-DOTAGA-rhCCK-16", "result": 1.5, "unit": "fold"}
    ]},
    {"smiles": "CCCC[C@H](NC(=O)[C@H](Cc1c[nH]c2ccccc12)NC(=O)CNC(=O)[C@H](Cc1ccc(O)cc1)NC(=O)[C@H](C)NC(=O)CC[C@@H](NC(=O)CC[C@@H](NC(=O)CC[C@@H](NC(=O)CC[C@@H](NC(=O)CC[C@@H](NC(=O)CC[C@@H](NC(=O)[C@@H](CNC(=O)c1ccc([Si](F)(C(C)(C)C)C(C)(C)C)cc1)NC(=O)CN1CCN(CC(=O)O)CCN(CC(=O)O)CCN(CC(=O)O)CC1)C(=O)O)C(=O)O)C(=O)O)C(=O)O)C(=O)O)C(=O)O)C(=O)N[C@@H](CC(=O)O)C(=O)N[C@@H](Cc1ccccc1)C(N)=O", "note": "[[^177Lu]Lu-DOTA-rhCCK-16, metal not drawn]", "values": [
      {"measurement": "logD", "setting": "[1]; pH 7.4, n-octanol/PBS pH 7.4, read-out: logD7.4", "result": "-2.7 ± 0.09"}
    ]}
  ]
}
